From patent publication US12029768B2, “Probiotics useful for eradicating helicobacter pylori infection” (DACF S.r.l., priority 2018, dated 2024)
Read-outs that look alike come from different tables or passages of the source.

Tested on: H. pylori
Assay: Checkerboard method, adjuvant effect of probiotic supernatant on antibiotic MIC/MBC
Type: cell-based, Helicobacter pylori
Details: for MBC / MIC: Helicobacter pylori; for MBC: read-out: MBC towards the H. pylori strain; for MIC: read-out: MIC towards the H. pylori strain
[1] = probiotic supernatant (L. acidophilus La-14) added to antibiotic

MIC (antibiotic alone) | MIC [1] | MIC with probiotic supernatant as fraction of the original MIC [1] | SMILES | MBC (antibiotic alone) | MBC [1] | increase of antibiotic activity against H. pylori [1]
0.25 µg/mL | 0.00025 µg/mL | 1/1000 | CC1(C)S[C@@H]2[C@H](NC(=O)[C@H](N)c3ccc(O)cc3)C(=O)N2[C@H]1C(=O)O [Amoxicillin, amoxicillin] | 0.5 µg/mL | 0.0005 µg/mL | 1000 folds
12 µg/mL | 0.125 µg/mL | 1/100 | CC[C@H]1OC(=O)[C@H](C)[C@@H](O[C@H]2C[C@@](C)(OC)[C@@H](O)[C@H](C)O2)[C@H](C)[C@@H](O[C@@H]2O[C@H](C)C[C@H](N(C)C)[C@H]2O)[C@](C)(OC)C[C@@H](C)C(=O)[C@H](C)[C@@H](O)[C@]1(C)O [Clarithromycin, clarithromycin] | 24 µg/mL | 0.25 µg/mL | 100 folds
